# Measured values taken from PubChem BioAssay (NCI).
#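 Assay format: 96-well plates, 48-hour exposure. The concentration for 50% growth inhibition is given as GI50. The concentration for full growth arrest is given as TGI.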
# How the values were obtained:
# Experiment in all cases: NCI anticancer screen, dose series, 48 h
# NCI-H522 lung = tested on: NCI-H522 lung
# HOP-62 NSCLC = tested on: HOP-62 NSCLC
# K-562 leukemia = tested on: K-562 leukemia
# MDA-MB-435 = tested on: MDA-MB-435
# EKVX NSCLC = tested on: EKVX NSCLC
# HCC-2998 colon = tested on: HCC-2998 colon
# NCI-H226 lung = tested on: NCI-H226 lung
# MDA-MB-231 breast = tested on: MDA-MB-231 breast
# MOLT-4 leukemia = tested on: MOLT-4 leukemia
# NCI-H23 lung = tested on: NCI-H23 lung
# HCT-116 colon = tested on: HCT-116 colon
# RXF 393 renal = tested on: RXF 393 renal
# SK-MEL-5 melanoma = tested on: SK-MEL-5 melanoma
# CCRF-CEM leukemia = tested on: CCRF-CEM leukemia
# NCI/ADR-RES ovarian = tested on: NCI/ADR-RES ovarian
# HL-60(TB) leukemia = tested on: HL-60(TB) leukemia
# PC-3 prostate = tested on: PC-3 prostate
# A498 renal = tested on: A498 renal
# HOP-92 NSCLC = tested on: HOP-92 NSCLC
# 786-0 renal = tested on: 786-0 renal
# T-47D breast = tested on: T-47D breast
# ACHN renal = tested on: ACHN renal
# SF-539 CNS = tested on: SF-539 CNS
# MALME-3M melanoma = tested on: MALME-3M melanoma
# LOX IMVI melanoma = tested on: LOX IMVI melanoma
# SW-620 colon = tested on: SW-620 colon
# SNB-19 CNS = tested on: SNB-19 CNS
# OVCAR-3 ovarian = tested on: OVCAR-3 ovarian
# OVCAR-5 ovarian = tested on: OVCAR-5 ovarian
structure (smiles),measurement,setting,value
Fc1ccc2[nH]cc(Cc3c[nH]c4ccc(F)cc34)c2c1,TGI,NCI-H522 lung,36.3 µM
same,GI50,HOP-62 NSCLC,19.6 µM
same,TGI,HOP-62 NSCLC,40.9 µM
same,GI50,K-562 leukemia,32.4 µM
same,TGI,K-562 leukemia,> 100 µM
same,GI50,MDA-MB-435,7.46 µM
same,TGI,MDA-MB-435,24.9 µM
same,GI50,EKVX NSCLC,17.6 µM
same,TGI,EKVX NSCLC,41.8 µM
same,GI50,HCC-2998 colon,13.3 µM
same,TGI,HCC-2998 colon,30.3 µM
same,GI50,NCI-H226 lung,31.3 µM
same,TGI,NCI-H226 lung,92.3 µM
same,GI50,MDA-MB-231 breast,16.7 µM
same,TGI,MDA-MB-231 breast,46.5 µM
same,GI50,MOLT-4 leukemia,1970 nM
same,TGI,MOLT-4 leukemia,22.1 µM
same,GI50,NCI-H23 lung,22.2 µM
same,TGI,NCI-H23 lung,53.5 µM
same,GI50,HCT-116 colon,17.8 µM
same,TGI,HCT-116 colon,43.3 µM
same,GI50,RXF 393 renal,18.2 µM
same,TGI,RXF 393 renal,42.8 µM
same,GI50,SK-MEL-5 melanoma,17.5 µM
same,TGI,SK-MEL-5 melanoma,35.3 µM
same,GI50,CCRF-CEM leukemia,16.7 µM
same,TGI,CCRF-CEM leukemia,64.5 µM
same,GI50,NCI/ADR-RES ovarian,17.2 µM
same,TGI,NCI/ADR-RES ovarian,90 µM
same,GI50,HL-60(TB) leukemia,37.4 µM
same,TGI,HL-60(TB) leukemia,> 100 µM
same,GI50,PC-3 prostate,15 µM
same,TGI,PC-3 prostate,35 µM
same,GI50,A498 renal,15 µM
same,TGI,A498 renal,31.8 µM
same,GI50,HOP-92 NSCLC,15.4 µM
same,TGI,HOP-92 NSCLC,34.1 µM
same,GI50,786-0 renal,17.1 µM
same,TGI,786-0 renal,35.6 µM
same,GI50,T-47D breast,20 µM
same,TGI,T-47D breast,96.9 µM
same,GI50,ACHN renal,26.1 µM
same,TGI,ACHN renal,63 µM
same,GI50,SF-539 CNS,15.7 µM
same,TGI,SF-539 CNS,33.6 µM
same,GI50,MALME-3M melanoma,16.7 µM
same,TGI,MALME-3M melanoma,33.8 µM
same,GI50,LOX IMVI melanoma,16 µM
same,TGI,LOX IMVI melanoma,47.1 µM
same,GI50,SW-620 colon,23.7 µM
same,TGI,SW-620 colon,58.8 µM
same,GI50,SNB-19 CNS,20.2 µM
same,TGI,SNB-19 CNS,51.9 µM
same,GI50,OVCAR-3 ovarian,19.5 µM
same,TGI,OVCAR-3 ovarian,52.8 µM
same,GI50,OVCAR-5 ovarian,17.5 µM
same,TGI,OVCAR-5 ovarian,38 µM
